Measurements as given in patent US20160363588A1, “URINE SAMPLE ANALYSIS METHOD AND REAGENT KIT FOR URINE SAMPLE ANALYSIS” (SYSMEX CORPORATION, priority 2014, published 2016).

Tests used:
Escherichia coli = conditions: E. coli, 1000 ppm acetic acid aqueous solution
Experimental: (§1) In this example, the antimicrobial activity of acetic acid against various bacteria was evaluated. As a control, a saline was used. The antimicrobial activity was evaluated on the basis of the number of colonies of the bacterium on the solid culture medium.
(§2) To each of an acetic acid aqueous solution and a saline, various species of bacteria were added to a concentration of 1×10^5 cells/mL to obtain bacterial suspensions. Each 100 μL was taken from the obtained bacterial suspensions, and these were taken as samples at day 0 of culture. The remaining bacterial suspensions were cultured for 7 days at 37° C. for E. coli and S. aureus and at 25° C. for P. aeruginosa, and each 100 μL was taken from the obtained bacterial suspensions as samples at day 7 of culture. Each 100 μL of the sample was coated on a heart infusion agar culture medium, and cultured at the respective culture temperatures. The culture time was 20 hours for E. coli, 24 hours for S. aureus and 48 hours for P. aeruginosa. After culturing, the number of colonies on the agar culture medium was counted, and the bacterial number (CFU/mL) was calculated.

Staphylococcus aureus = conditions: S. aureus, 1000 ppm acetic acid aqueous solution
Experimental: as §1, §2

Pseudomonas aeruginosa = conditions: P. aeruginosa, 1000 ppm acetic acid aqueous solution
Experimental: as §1, §2

CC(=O)O [acetic acid]
Bacterial number At day 7 (Escherichia coli; cultured 7 days at 37° C.): 0 CFU/mL
proliferation of bacteria in the solution (Escherichia coli; culturing for 7 days): cannot be proliferated
Bacterial number At day 0 (Escherichia coli; day 0 of culture): 1000 CFU/mL
Bacterial number At day 7 (Staphylococcus aureus; cultured 7 days at 37° C.): 0 CFU/mL
proliferation of bacteria in the solution (Staphylococcus aureus; culturing for 7 days): cannot be proliferated
Bacterial number At day 0 (Staphylococcus aureus; day 0 of culture): 1000 CFU/mL
Bacterial number At day 7 (Pseudomonas aeruginosa; cultured 7 days at 25° C.): 0 CFU/mL
proliferation of bacteria in the solution (Pseudomonas aeruginosa; culturing for 7 days): cannot be proliferated
Bacterial number At day 0 (Pseudomonas aeruginosa; day 0 of culture): 1000 CFU/mL
